Results as given in ChEMBL document CHEMBL1128655, “3-Fluoro-2-(4-methylpiperazin-1-yl)-5,12-dihydro-5-oxobenzoxazolo[3,2-a]quinoline-6-carboxylic acid: Synthesis and In vitro cytotoxic activity” (Bioorg Med Chem Lett, 1995).
Values after ≈ are worked out from the molar mass of the structure shown.

Legend:
Type in all cases: functional, cell-based
SNU1 = assay: In vitro cytotoxic activity against human tumor SNU 1 (stomach) cell line
SNU-354 = assay: In vitro cytotoxic activity against human tumor SNU 354 (liver) cell line
SNU-C4 = assay: In vitro cytotoxic activity against human tumor SNU C-4(colon) cell line
[1] = Homo sapiens, SNU1, read-out: IC50
[2] = Homo sapiens, SNU-354, read-out: IC50
[3] = Homo sapiens, SNU-C4, read-out: IC50

Compound	IC50 (SNU1; snu1) [mg/L]	IC50 (SNU-354; snu-354) [mg/L]	IC50 (SNU-C4; snu-c4) [mg/L]	IC50 (SNU1; [1]) [mg/L]	IC50 (SNU-354; [2]) [mg/L]	IC50 (SNU-C4; [3]) [mg/L]
CISPLATIN	1.4	4.1	2.8	–	–	–
CC(=O)N1CCN(c2cc3c(cc2F)c(=O)c(C(=O)O)c2oc4ccccc4n23)CC1	–	–	–	> 200	> 200	> 200
COc1cccc2c1C(=O)c1c(O)c3c(c(O)c1C2=O)C[C@@](O)(C(=O)CO)C[C@@H]3O[C@H]1C[C@H](N)[C@H](O)[C@H](C)O1 [DOXORUBICIN]	–	–	–	< 0.5	< 0.5	< 0.5
O=C(O)c1c(=O)c2cc(F)c(N3CCNCC3)cc2n2c1oc1ccccc12	–	–	–	15.3 (≈ 40.1 µM)	19.8 (≈ 51.9 µM)	13.4 (≈ 35.1 µM)
CN1CCN(c2cc3c(cc2F)c(=O)c(C(=O)O)c2oc4ccccc4n23)CC1.Cl	–	–	–	2	1.9	1.8
